Experiment in all cases: microbe, parasite or virus in culture
The test system of one assay is Mtb TF274/XDR. It is filed as cell-based. Conditions: Mycobacterium tuberculosis, read-out: Mtb MIC TF274/XDR.
Another assay relates to Mtb R506/XDR. It is filed as cell-based. Conditions: Mycobacterium tuberculosis, read-out: Mtb MIC R506/XDR.
Another assay relates to Mtb V2475/MDR. It is filed as cell-based. Conditions: Mycobacterium tuberculosis, read-out: Mtb MIC V2475/MDR.
The next assay concerns Mtb KZN494/MDR. It is filed as cell-based, Mycobacterium tuberculosis. Conditions: Mycobacterium tuberculosis, KZN494/MDR, read-out: Mtb MIC KZN494/MDR.

In brackets after ≈: the same amount, converted by molar mass.

As for `Cc1ccc2nc(C)c(C(=O)NCCCC3CCCCC3)n2c1` [Compound 15, N-(3-cyclohexylpropyl)-2,6-dimethylimidazo[1,2-a]pyridine-3-carboxamide], the MIC in the assay on Mtb TF274/XDR was 0.2 µM (≈ 0.0627 µg/mL); with Mtb R506/XDR, 0.1 µM (≈ 0.0313 µg/mL); with Mtb V2475/MDR, 0.2 µM (≈ 0.0627 µg/mL); in the assay with Mtb KZN494/MDR it was 0.05 µM (≈ 0.0157 µg/mL).

Turning to `Cc1nc2ccc(Cl)cn2c1C(=O)NCCCC1CCCCC1` [Compound 16, 6-chloro-N-(3-cyclohexylpropyl)-2-methylimidazo[1,2-a]pyridine-3-carboxamide], the MIC stood at 1.5 µM (≈ 0.501 µg/mL) with Mtb TF274/XDR, 0.75 µM (≈ 0.25 µg/mL) with Mtb R506/XDR, 0.37 µM (≈ 0.124 µg/mL) in the assay on Mtb V2475/MDR and 0.09 µM (≈ 0.03 µg/mL) with Mtb KZN494/MDR.

The values are drawn from article PMC8720286 (Chemical biology & drug design, 2020).
